Values of other authors as cited in US20250213469A1, “DOSAGE FORMS OF ACTIVE […] AGAINST VIRAL DISEASES IN DRY POWDER INHALER DEVICE FOR SYMPTOMS CAUSED BY COVID-19 AND OTHER VIRAL LUNG DISEASES” ([…] EGITIM D[…].S., priority 2022, published 2025).

Settings: C3H/HeN mice, positron emission tomography; literature study of Bocan et al.

NC(=O)c1nc(F)c[nH]c1=O [[^18F] Favipiravir]
tissue retention (biodistribution) of the active substance: retained lowest in the lungs and the most in the kidney, liver and stomach
